Broadly, the melting point is the temperature, or range, at which the solid turns liquid.

In the case of `COCc1c(C(=O)O)sc2cccc(F)c12`, the melting point was 130 to 139 °C.
For the compound `Clc1nc(C2CC2)nc2sc3c(c12)CCCC3`, the melting point was 112 to 114 °C.
The same measure for `CCn1c(S)nnc1CCC(N)=O`: 208 to 210 °C.
The same measure for `CC1CC(C(=O)O)CCC1=O` (stereo not drawn): 69 to 71 °C; for `O=S1(=O)CCCN1Cc1ccc(Br)cc1`: 58 to 60 °C; for `Cc1n[nH]c(C)n1`: 127 to 131 °C.
The same measure for `CC(C)n1cnc(S(=O)(=O)Cl)c1`: 62 to 64 °C; for `O=C(O)c1ccc(COc2ccccc2)cc1`: 214 to 216 °C.
In turn, `CNS(=O)(=O)CCC(=O)OCc1ccccc1` returned a melting point of 59 to 61 °C.
The same measure for `COC(=O)c1cc(O)c(C)c(F)c1`: 129 to 131 °C; for `CC1(C)CC(=O)c2ccc(O)cc2O1`: 168 to 170 °C.
The same measure for `CC(CC(=O)O)c1ccc(F)cc1F` (stereo not drawn): 66 to 68 °C.
`O=C(O)c1nn(-c2ccccc2)cc1CCCO`: the melting point was in the range of 119 to 121 °C.
`FC(F)c1nc(Cl)c2ccccc2n1` showed a melting point of 85 to 87 °C.
The same measure for `Cc1ccc(-c2ocnc2C(=O)O)cc1`: 193 to 195 °C; for `O=C(O)CCCc1csc2ccccc12`: 109 to 111 °C.
In the case of `CCn1c(=O)c2ccccc2n2c(CCl)nnc12` it was 195 to 197 °C.
The same measure for `COC(=O)c1sccc1N=[N+]=[N-]`: 69 to 71 °C; for `O=C1C=CC(=O)N1c1cccc2cnccc12`: 134 to 136 °C; for `O=c1[nH]c2ccccc2c(=O)n1CCO`: 257 to 259 °C.
In turn, `O=C(O)C1CCN(S(=O)(=O)c2cccnc2)CC1` yielded a melting point of 237 to 239 °C.
Take `Cc1cc2ncc(Br)cn2n1`: the melting point is 137 to 139 °C.
Take `O=C(O)CC1=NNC(=O)C1`: the melting point was 195 to 197 °C.
`Cc1ccc(-c2nc(N)sc2CC(=O)O)cc1` showed a melting point of 218 to 222 °C.
Consider `O=C(O)c1ccc(S(=O)(=O)C2CCCC2)cc1`, for which the melting point was 199 to 201 °C.
In the case of `Fc1ccc(Nc2nccs2)cc1Cl`, the melting point lay in the range of 124 to 126 °C.
The same measure for `O=C(O)CCc1ccc2c(c1)CCO2`: 92 to 94 °C.
In the case of `O=C(O)c1ccc(NC(=O)N2CCCCC2)c(F)c1` it was 179 to 181 °C; in that of `Nc1ccc(CC(=O)N2CCSCC2)cc1`, 118 to 120 °C; in that of `Nc1nc(-c2cccnc2)no1`, 266 to 268 °C.
As for `CN(C)c1ccc(C2CC2C(=O)O)cc1` (stereo not drawn), the melting point lay within 119 to 121 °C.
In the case of `O=c1onc(-c2ccccc2)n1CC1CO1` (stereo not drawn) it was 81 to 83 °C; in that of `CC(=O)c1oc2ccccc2c1NC(=O)C(C)Cl` (stereo not drawn), 105 to 107 °C.
In the case of `O=C(CCl)NCc1cn(Cc2ccccc2)nc1-c1ccccc1` it was 82 to 84 °C; in that of `O=C(O)c1sccc1S(=O)(=O)N1CCCCC1`, 111 to 113 °C; in that of `O=C(O)c1cccc(Oc2cccc(Cl)c2)n1`, 96 to 98 °C.
The same measure for `NC(=O)CCS(=O)(=O)CCCl`: 139 to 141 °C; for `CCN(CC)S(=O)(=O)c1ccc(OC)c(NC(=O)CCl)c1`: 100 to 102 °C; for `CCNS(=O)(=O)c1ccc(Cl)nc1`: 73 to 75 °C.
`N#CC(C(=O)CCl)=C1Nc2ccccc2N1`: the melting point fell in the range of 285 to 287 °C.
The same measure for `c1ccc2oc(N3CCNCC3)nc2c1`: 74 to 76 °C; for `COc1cccc(NC(=O)CCl)c1`: 73 to 75 °C.
In the case of `Cc1ccc(C#N)c(N)n1` it was 169 to 171 °C; in that of `CCCCCCOc1ccc(CC(=O)O)cc1`, 79 to 81 °C.
The same measure for `COc1ccc(C)cc1N1CC(C(=O)O)CC1=O` (stereo not drawn): 171 to 173 °C; for `Cc1ccc(-c2ccc(C(=O)O)c(F)c2)cc1`: 247 to 249 °C.
Consider `Cc1cc(C)cc(OCCC(=O)O)c1`, for which the melting point was 88 to 90 °C.
The same measure for `CCN(CC)S(=O)(=O)c1ccc(NC(=O)CCl)cc1`: 103 to 105 °C; for `O=[N+]([O-])c1n[nH]cc1S(=O)(=O)Cl`: 154 to 156 °C; for `CCN(CC)S(=O)(=O)c1cccc(N)c1`: 84 to 86 °C.
The same measure for `c1cncc(NCc2ccco2)c1`: 45 to 49 °C; for `Nc1noc(-c2ccccc2)n1`: 164 to 166 °C.
As for `CCOC(=O)c1[nH]c2c(c1C)C(=O)CCC2`, the melting point lay within 159 to 161 °C.
The same measure for `O=C(Cc1ccccc1Cl)c1ccccc1`: 68 to 70 °C; for `NCc1nnc2n1CC(C(F)(F)F)CC2` (stereo not drawn): 55 to 57 °C.
The same measure for `COc1cccc(C2CC2C(=O)O)c1` (stereo not drawn): 90 to 92 °C.
The same measure for `c1ccc2[nH]c(C3CCCCN3)cc2c1` (stereo not drawn): 151 to 153 °C; for `CC(C)(C)c1ccc(C2(N)CCCC2)cc1`: 120 to 122 °C; for `O=C(O)Cn1ncn2nccc2c1=O`: 213 to 215 °C.
For `CCN(CC)S(=O)(=O)c1ccc(Cl)c(S(=O)(=O)Cl)c1`, the melting point was in the range of 99 to 101 °C.
The same measure for `COc1cc(-n2cccc2)c(Cl)cc1C(=O)O`: 152 to 154 °C.
In the case of `COc1ccc(N)cc1NC(=O)c1cccc(F)c1` it was 100 to 102 °C; in that of `O=C(CCl)NC(=O)NCC(F)(F)F`, 154 to 156 °C; in that of `NC(=O)Cc1noc2ccccc12`, 147 to 149 °C.
`COc1ccc(CCNc2nnc(S)s2)cc1OC`: the melting point was in the range of 189 to 191 °C.
In the case of `O=C(O)Cc1coc2cc3c(cc12)CCC3` it was 151 to 153 °C; in that of `Nc1cc(C(=O)O)ccc1Oc1ccccc1`, 146 to 148 °C; in that of `CNc1ncc(C(=O)O)s1`, 159 to 161 °C.
In turn, `O=C(O)CNC1=NCCCCC1` gave a melting point of 163 to 165 °C.
In the case of `CC(C)(Nc1ccc([N+](=O)[O-])cc1)C(=O)O` it was 167 to 169 °C.
The same measure for `O=c1[nH]nc2cnccn12`: 229 to 231 °C.
In the case of `CC(C)C(Br)C(=O)c1ccccc1` (stereo not drawn) it was 49 to 51 °C; in that of `O=C(O)C1CC1(Cl)Cl` (stereo not drawn), 74 to 76 °C; in that of `N#Cc1cc(CBr)ccc1F`, 44 to 46 °C.
In the case of `CCN(CC)S(=O)(=O)c1ccc(O)c(C(=O)O)c1`, the melting point was in the range of 129 to 131 °C.
Turning to `COc1ncncc1N`, the melting point lay within 71 to 73 °C.
In the case of `Clc1ccc2c(c1)NCCCS2` it was 51 to 53 °C.
The same measure for `O=C1NC(=O)C2(CCOc3ccccc32)N1` (stereo not drawn): 120 to 122 °C; for `COc1ccc(SC)c(OC)c1C(=O)O`: 117 to 119 °C.
The same measure for `Clc1noc(-c2ccccc2)n1`: 31 to 33 °C; for `CC(C)Nc1ccc(C(=O)O)cn1`: 249 to 251 °C.
For the compound `Cc1nn2cnnc2c(C)c1CCC(=O)O`, the melting point lay in the range of 253 to 255 °C.
In the case of `NC(=O)c1cc(CCO)c(C(F)(F)F)[nH]c1=O` it was 230 to 232 °C; in that of `N#Cc1cn(-c2ccccc2[N+](=O)[O-])nc1N`, 188 to 190 °C.
Regarding `COc1ccccc1C(=O)CC#N`, the melting point lay within 71 to 75 °C.
The same measure for `CC(N)c1ccc(S(C)(=O)=O)c(F)c1` (stereo not drawn): 60 to 62 °C; for `CC(O)C(NC(=O)C1CCCC1)C(=O)O` (stereo not drawn): 145 to 147 °C; for `N#Cc1ccc(Oc2ccccc2O)c(F)c1`: 97 to 99 °C.

The values above are taken from a melting point compilation (Tetko et al.).
